row,Structure (SMILES),melting point [°C]
1,Fc1cccc(Cl)c1-c1c(NC2CCC(c3ccccc3)CC2)cc(-n2cccn2)nc1Cl (stereo not shown) [I-4],170
2,Fc1cccc(Cl)c1-c1c(Cl)cc(-n2cccn2)nc1NC1CCC(c2ccccc2)CC1 (stereo not shown) [I-5],78
3,CC(C)(C)C1CCC(Nc2nc(-n3cccn3)cc(Cl)c2-c2c(F)cccc2Cl)CC1 (stereo not shown) [I-9],126
4,"CC(C)Nc1cc(-n2cncn2)nc(Cl)c1-c1c(F)cccc1Cl [I-13, 2-Chloro-3-(2-chloro-6-fluorophenyl)-4-(2-propylamino)-6-([1,2,4]triazol-1-yl)pyridine]",152
5,"CC(C)Nc1nc(-n2cncn2)cc(Cl)c1-c1c(F)cccc1Cl [I-14, 4-chloro-3-(2-chloro-6-fluorophenyl)-2-(2-propylamino)-6-([1,2,4]triazol-1-yl)pyridine]",152
6,CCC(C)Nc1cc(-n2cccn2)nc(Cl)c1-c1c(F)cccc1Cl (stereo not shown) [I-15],108
7,CCC(C)Nc1nc(-n2cccn2)cc(Cl)c1-c1c(F)cccc1Cl (stereo not shown) [I-16],114
8,Fc1cccc(Cl)c1-c1c(NC2CC2)cc(-n2cccn2)nc1Cl [I-22],164
9,Fc1cccc(Cl)c1-c1c(Cl)cc(-n2cccn2)nc1NC1CC1 [I-23],103
10,Fc1cccc(Cl)c1-c1c(NC2CCCCC2)cc(-n2cccn2)nc1Cl [I-44],112
11,Cc1cccc(-c2cc(Cl)c(-c3c(F)cccc3Cl)c(NC(C)C)n2)n1 [I-45],131
12,CC(C)Nc1cc(-c2nccs2)nc(Cl)c1-c1c(F)cccc1Cl [I-48],78
13,Cc1nc(-c2cc(NC(C)C)c(-c3c(F)cccc3Cl)c(Cl)n2)sc1C [I-50],183
14,CC(C)Nc1nc(-c2nc3ccccc3s2)cc(Cl)c1-c1c(F)cccc1Cl [I-51],119
15,CC(C)Nc1cc(-c2nc3ccccc3s2)nc(Cl)c1-c1c(F)cccc1Cl [I-52],154
16,COc1ccc(CCNc2cc(-c3ccccn3)nc(Cl)c2-c2c(F)cccc2Cl)cc1OC [I-56],78
17,COc1ccc(CCNc2nc(-n3cccn3)cc(Cl)c2-c2c(F)cccc2Cl)cc1OC [I-57],59
18,COc1ccc(CCNc2cc(-n3cccn3)nc(Cl)c2-c2c(F)cccc2Cl)cc1OC [I-58],201

# The next lines start with the values.
row,melting point [°C],Structure (SMILES)
1,120,CC1CCN(c2nc(-n3cccn3)cc(Cl)c2-c2c(F)cccc2Cl)CC1 [I-19]
2,158,Fc1cccc(Cl)c1-c1c(Cl)cc(-n2cccn2)nc1N1CCCC1 [I-20]
3,161,Fc1cccc(Cl)c1-c1c(N2CCCC2)cc(-n2cccn2)nc1Cl [I-21]
4,162,Fc1cccc(Cl)c1-c1c(Cl)cc(-c2ccccn2)nc1NC1CCC(c2ccccc2)CC1 (stereo not shown) [I-24]
5,181,Fc1cccc(Cl)c1-c1c(NC2CCC(c3ccccc3)CC2)cc(-c2ccccn2)nc1Cl (stereo not shown) [I-25]
6,163,CC(C)(C)C1CCC(Nc2cc(-c3ccccn3)nc(Cl)c2-c2c(F)cccc2Cl)CC1 (stereo not shown) [I-27]
7,119,CC1CCN(c2cc(-c3ccccn3)nc(Cl)c2-c2c(F)cccc2Cl)CC1 [I-31]
8,83,Fc1cccc(Cl)c1-c1c(NC2CCCCC2)cc(-c2ccccn2)nc1Cl [I-36]
9,67,CC(C)Nc1nc(-c2ccccn2)cc(Cl)c1-c1c(F)cccc1Cl [I-39]
10,155,Fc1cccc(Cl)c1-c1c(Cl)cc(-c2ccccn2)nc1N1CCCC1 [I-40]
11,152,Fc1cccc(Cl)c1-c1c(Cl)cc(-n2cccn2)nc1NC1CCCCC1 [I-43]
12,129,CC1CCN(c2nc(-c3ncccn3)cc(Cl)c2-c2c(F)cccc2Cl)CC1 [I-53]
13,129,CC1CCN(c2cc(-c3ncccn3)nc(Cl)c2-c2c(F)cccc2Cl)CC1 [I-54]
